The test addresses SMYD3 (Homo sapiens (Human), UniProt Q9H7B4). Description: SMYD3 biochemical assay (SMYD3 enzyme assay on MEKK2 protein substrate, 3H-SAM scintillation proximity assay). Particulars: read-out: SMYD3 Biochem IC50. Summed up: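 Native full-length human SMYD3, expressed in E. coli, was preincubated with compound for 30 min at room temperature in 25 mM Tris-Cl pH 8.0, 1 mM TCEP, 0.005% BSG and 0.005% Tween 20. ³H-SAM plus GST-MEKK2 then started the reaction. It was stopped with unlabeled SAM (100 uM final), and methylated MEKK2 was read by SPA.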
(In general: In a scintillation proximity assay essentially only radioactivity close to the scintillant gives light.)

Setting [1] is: Table 1A, average of n = 1 to n = 50.

Broadly, the IC50 is the concentration needed to halve the response being measured.

Structures are written as SMILES. Read-outs that look alike come from different tables or passages of the source.

Sequence of SMYD3 (Q9H7B4 whole entry): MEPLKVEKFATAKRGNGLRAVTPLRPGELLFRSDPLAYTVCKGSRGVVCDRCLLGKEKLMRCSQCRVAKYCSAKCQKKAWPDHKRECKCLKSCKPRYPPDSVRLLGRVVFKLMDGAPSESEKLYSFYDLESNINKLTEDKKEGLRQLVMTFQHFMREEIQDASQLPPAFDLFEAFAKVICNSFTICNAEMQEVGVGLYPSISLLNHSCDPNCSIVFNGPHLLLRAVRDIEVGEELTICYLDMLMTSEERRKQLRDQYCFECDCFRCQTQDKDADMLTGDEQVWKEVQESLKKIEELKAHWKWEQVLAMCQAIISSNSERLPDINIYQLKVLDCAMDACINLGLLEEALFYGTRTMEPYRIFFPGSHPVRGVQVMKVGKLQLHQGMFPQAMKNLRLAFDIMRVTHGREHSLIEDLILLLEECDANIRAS

In the case of `NCCC(=O)N[C@H]1CC[C@H](NC(=O)c2ccc3c(c2)C(=O)C(=O)N3)CC1` [compound 504, N-((1r,4r)-4-(3-aminopropanamido)cyclohexyl)-2,3-dioxoindoline-5-carboxamide], the IC50 came out at 5.38 µM. The same measure, in the same setting: in the case of `NC1CCC(NC(=O)c2cccc3c2NC(=O)C3)CC1` (stereo not shown) [compound 506, N-(4-aminocyclohexyl)-2-oxoindoline-7-carboxamide] it was 42.3 µM.

For `Cn1ncnc1C(=O)N[C@H]1CC[C@H](N)CC1` [compound 507, N-((1r,4r)-4-aminocyclohexyl)-1-methyl-1H-1,2,4-triazole-5-carboxamide], the IC50 was above 100 µM. On the same count and under the same terms, the figure for `Nc1n[nH]c(C(=O)N[C@H]2CC[C@H](N)CC2)n1` [compound 508, 3-amino-N-((1r,4r)-4-aminocyclohexyl)-1H-1,2,4-triazole-5-carboxamide] is above 50 µM; for `CC(NC(=O)c1cncnc1O)C1CCN(C(=O)[C@H](C)N)CC1` (stereo partly drawn) [compound 509, N-(1-(1-(L-alanyl)piperidin-4-yl)ethyl)-4-hydroxypyrimidine-5-carboxamide] it is above 50 µM; for `NCCC(=O)N[C@H]1CC[C@H](NC(=O)c2cncnc2O)CC1` [compound 510, N-((1r,4r)-4-(3-aminopropanamido)cyclohexyl)-4-hydroxypyrimidine-5-carboxamide] it is above 50 µM. With `CC(NC(=O)c1ncccc1O)C1CCN(C(=O)[C@H](C)N)CC1` (stereo partly drawn) [compound 511, N-(1-(1-(L-alanyl)piperidin-4-yl)ethyl)-3-hydroxypicolinamide], the IC50 was above 50 µM. Turning to `NCCC(=O)N[C@H]1CC[C@H](NC(=O)c2ncccc2O)CC1` [compound 512, N-((1r,4r)-4-(3-aminopropanamido)cyclohexyl)-3-hydroxypicolinamide], the IC50 is above 50 µM. Same read-out and setting: the figure for `CC(NC(=O)c1cncc(O)c1)C1CCN(C(=O)[C@H](C)N)CC1` (stereo partly drawn) [compound 513, N-(1-(1-(L-alanyl)piperidin-4-yl)ethyl)-5-hydroxynicotinamide] is above 50 µM; for `NCCC(=O)N[C@H]1CC[C@H](NC(=O)c2cncc(O)c2)CC1` [compound 514, N-((1r,4r)-4-(3-aminopropanamido)cyclohexyl)-5-hydroxynicotinamide] it is above 50 µM; for `N[C@H]1CC[C@H](NC(=O)c2cncc(O)c2)CC1` [compound 515, N-((1r,4r)-4-aminocyclohexyl)-5-hydroxynicotinamide] it is above 50 µM. Still for that read-out and setting: the figure for `NCCC(=O)N[C@H]1CC[C@H](NC(=O)c2cn(CC(N)=O)nn2)CC1` [compound 516, 1-(2-amino-2-oxoethyl)-N-((1r,4r)-4-(3-aminopropanamido)cyclohexyl)-1H-1,2,3-triazole-4-carboxamide] is above 50 µM. As for `NC1CCC(NC(=O)c2c[nH]cn2)CC1` (stereo not shown) [compound 517, N-(4-aminocyclohexyl)-1H-imidazole-4-carboxamide], the 50% inhibitory concentration (IC50) was above 50 µM. Turning to `NCCC(=O)NC1CCC(NC(=O)c2ncc[nH]2)CC1` (stereo not shown) [compound 518, N-(4-(3-aminopropanamido)cyclohexyl)-1H-imidazole-2-carboxamide], the IC50 was above 50 µM.

As to `Cc1cc2cc(C(=O)N[C@H]3CC[C@H](NC(=O)CCN)CC3)ccc2[nH]1` [compound 519, N-((1r,4r)-4-(3-aminopropanamido)cyclohexyl)-2-methyl-1H-indole-5-carboxamide], the IC50 is above 50 µM.

For the compound `Cc1cc2cc(C(=O)N[C@H]3CC[C@H](N)CC3)ccc2[nH]1` [compound 520, N-((1r,4r)-4-aminocyclohexyl)-2-methyl-1H-indole-5-carboxamide], the IC50 is above 50 µM.

With `N[C@H]1CC[C@H](NC(=O)c2c[nH]cn2)CC1` [compound 521, N-((1r,4r)-4-aminocyclohexyl)-1H-imidazole-4-carboxamide], the IC50 was above 50 µM. On to `Cc1ncc(C(=O)N[C@H]2CC[C@H](N)CC2)[nH]1` [compound 522, N-((1r,4r)-4-aminocyclohexyl)-2-methyl-1H-imidazole-5-carboxamide], for which the IC50 under setting [1] is above 50 µM. As to `CC(NC(=O)c1nnc[nH]1)C1CCN(C(=O)[C@H](C)N)CC1` (stereo partly drawn) [compound 523, N-(1-(1-(L-alanyl)piperidin-4-yl)ethyl)-4H-1,2,4-triazole-3-carboxamide], under setting [1], the IC50 is above 50 µM. On the same count and under the same terms, in the case of `NCCC(=O)N[C@H]1CC[C@H](NC(=O)c2nnc[nH]2)CC1` [compound 525, N-((1r,4r)-4-(3-aminopropanamido)cyclohexyl)-4H-1,2,4-triazole-3-carboxamide] it was above 50 µM. Same read-out and setting: the figure for `CC(NC(=O)c1cc(Cl)[nH]n1)C1CCN(C(=O)[C@H](C)N)CC1` (stereo partly drawn) [compound 527, N-(1-(1-(L-alanyl)piperidin-4-yl)ethyl)-5-chloro-1H-pyrazole-3-carboxamide] is above 50 µM; for `NCCC(=O)N[C@H]1CC[C@H](NC(=O)c2cc(Cl)[nH]n2)CC1` [compound 528, N-((1r,4r)-4-(3-aminopropanamido)cyclohexyl)-5-chloro-1H-pyrazole-3-carboxamide] it is above 50 µM. The same measure, in the same setting: in the case of `NCCC(=O)N[C@H]1CC[C@H](NC(=O)c2cc3cn[nH]c3cn2)CC1` [compound 529, N-((1r,4r)-4-(3-aminopropanamido)cyclohexyl)-1H-pyrazolo[3,4-c]pyridine-5-carboxamide] it was 4.45 µM. Consider `NCCC(=O)N[C@H]1CC[C@H](NC(=O)c2n[nH]c(=O)[nH]2)CC1` [compound 530, N-((1r,4r)-4-(3-aminopropanamido)cyclohexyl)-5-oxo-4,5-dihydro-1H-1,2,4-triazole-3-carboxamide], for which the IC50 under setting [1] is above 50 µM. The same measure, in the same setting: the figure for `N[C@H]1CC[C@H](NC(=O)c2n[nH]c(=O)[nH]2)CC1` [compound 531, N-((1r,4r)-4-aminocyclohexyl)-5-oxo-4,5-dihydro-1H-1,2,4-triazole-3-carboxamide] is above 50 µM; for `NCCC(=O)N[C@H]1CC[C@H](NC(=O)c2nc3ccncc3s2)CC1` [compound 532, N-((1r,4r)-4-(3-aminopropanamido)cyclohexyl)thiazolo[5,4-c]pyridine-2-carboxamide] it is above 50 µM. Regarding `N[C@H]1CC[C@H](NC(=O)c2nc3ccncc3s2)CC1` [compound 533, N-((1r,4r)-4-aminocyclohexyl)thiazolo[5,4-c]pyridine-2-carboxamide], the IC50 under setting [1] is above 50 µM. On to `CC(NC(=O)c1cn(CC(N)=O)nn1)C1CCN(C(=O)[C@H](C)N)CC1` (stereo partly drawn) [compound 534, N-(1-(1-(L-alanyl)piperidin-4-yl)ethyl)-1-(2-amino-2-oxoethyl)-1H-1,2,3-triazole-4-carboxamide], for which the IC50 under setting [1] was above 50 µM. As to `CCc1nc(C(=O)N[C@H]2CC[C@H](N)CC2)n[nH]1` [compound 535, N-((1r,4r)-4-aminocyclohexyl)-5-ethyl-1H-1,2,4-triazole-3-carboxamide], the IC50 under setting [1] was above 50 µM. Same read-out and setting: the figure for `CCc1nnc(C(=O)N[C@H]2CC[C@H](NC(=O)CCN)CC2)[nH]1` [compound 536, N-((1r,4r)-4-(3-aminopropanamido)cyclohexyl)-5-ethyl-4H-1,2,4-triazole-3-carboxamide] is above 50 µM. Still for that read-out and setting: in the case of `NCCC(=O)N[C@H]1CC[C@H](NC(=O)c2c[nH]cn2)CC1` [compound 537, N-((1r,4r)-4-(3-aminopropanamido)cyclohexyl)-1H-imidazole-4-carboxamide] it was above 50 µM.

These data come from patent US10266526B2, “Substituted 1,2,3-triazoles as SMYD inhibitors for treating cancer” (EPIZYME, INC., priority 2014, dated 2019).
